Test: Absorption maximum in water
Type: physicochemical
Settings: Table 6
Text: The absorption maxima and the results of the tests (B) to (D) are listed in Table 6 for the dyes of the invention and in Table 7 for the dyes that are state of the art.

SMILES	HD max in water [nm]
O=S(=O)(O)CCNc1ccc2cc(S(=O)(=O)O)c(N=Nc3ccc(N=Nc4ccc(S(=O)(=O)O)cc4)c4cc(S(=O)(=O)O)ccc34)c(O)c2c1 [Compound 4]	577
O=C(O)c1cc(N=Nc2ccc(N=Nc3c(S(=O)(=O)O)cc4ccc(NCCS(=O)(=O)O)cc4c3O)c3ccc(S(=O)(=O)O)cc23)cc(C(=O)O)c1 [Compound 17]	568
O=C(O)CCc1cccc(N=Nc2ccc(N=Nc3c(S(=O)(=O)O)cc4ccc(NCCS(=O)(=O)O)cc4c3O)c3cc(S(=O)(=O)O)ccc23)c1 [Compound 13]	575
O=S(=O)(O)CCNc1ccc2cc(S(=O)(=O)O)c(N=Nc3ccc(N=Nc4cccc(S(=O)(=O)O)c4)c4cc(S(=O)(=O)O)ccc34)c(O)c2c1 [Compound 6]	573
O=C(O)c1ccc(N=Nc2ccc(N=Nc3c(S(=O)(=O)O)cc4ccc(NCCS(=O)(=O)O)cc4c3O)c3cc(S(=O)(=O)O)ccc23)cc1Cl [Compound 15]	590
O=C(O)Cc1ccc(N=Nc2ccc(N=Nc3c(S(=O)(=O)O)cc4ccc(NCCS(=O)(=O)O)cc4c3O)c3cc(S(=O)(=O)O)ccc23)cc1 [Compound 7]	576
O=S(=O)(O)CCNc1ccc2cc(S(=O)(=O)O)c(N=Nc3ccc(N=Nc4cc(S(=O)(=O)O)c5cccc(S(=O)(=O)O)c5c4)c4ccc(S(=O)(=O)O)cc34)c(O)c2c1 [Compound 19]	581

Same assay, conditions: state of the art dyes, Table 7

SMILES	HD max in water [nm]
Nc1ccc2cc(S(=O)(=O)O)c(N=Nc3ccc(N=Nc4cccc(C(=O)O)c4)c4ccc(S(=O)(=O)O)cc34)c(O)c2c1 [Compound 23, reference compound]	570
Nc1ccc2cc(S(=O)(=O)O)c(N=Nc3ccc(N=Nc4cc(C(=O)O)cc(C(=O)O)c4)c4cc(S(=O)(=O)O)ccc34)c(O)c2c1 [Compound 25, reference compound]	556
O=C(O)CCNc1ccc2cc(S(=O)(=O)O)c(N=Nc3ccc(N=Nc4ccc(C(=O)O)cc4)c4ccc(S(=O)(=O)O)cc34)c(O)c2c1 [Compound 27, reference compound]	564

Test: Color co-ordinates (L*a*b*) of printed samples
Type: physicochemical
Settings: Table 6
Experimental: (§1) The present invention, as far as it relates to inks, is further illustrated by the following examples using dyes according to our invention described in Tables 1 and 2 and dyes representing the state of the art described in Tables 3 and 4. 100 g of each ink were prepared by heating the necessary amount of dye (3-7 g), glycerol (5 g), tetraethylenglycol (1.1 g). and a biocide solution (Promexal X50, available from Zeneca, Manchester, England) (1.2 g) together with water at a temperature of 50° C. under stirring for one hour. The resulting solution was cooled down to 20° C., pH was adjusted to 7.5 and passed through a Millipore® filter of 0.5 μm pore diameter. The dye quantity was adjusted in a way that the density of the printed images was the same for all dyes.
(§2) 30 g of gelatin with a high isoelectric point (type St 70,810, available from Deutsche Gelatinefabriken, Eberbach, Germany) were dissolved in 360 ml of deionised water. 1 g of a surfactant (Olin 10G, available from Olin Corporation, Norwalk, USA) were added to this solution. Immediately before coating 6.6 g of a solution of 2-(4-dimethyl-carbamoyl-pyridino)-ethanesulfonate (3%) were added and pH was adjusted to 6.5. 100 g/m^2 of this solution was then coated onto a resin coated paper support using a bar coater. The recording medium prepared in this way was dried for 12 hours.
(§3) The inks were then jetted onto this recording medium with an HP560 ink jet printer from Hewlett-Packard. The properties of the printed samples were evaluated later on.
L*a*b*-values were measured on printed samples using a Gretag SPM 100 spectrometer, available from Gretag AG, Regensdorf, Switzerland.
Black dyes show a neutral hue if the values of a* and b*out of the L*a*b* color co-ordinates are zero.

SMILES	L*a*b*-value: L*	L*a*b*-value: a*	L*a*b*-value: b*
O=S(=O)(O)CCNc1ccc2cc(S(=O)(=O)O)c(N=Nc3ccc(N=Nc4ccc(S(=O)(=O)O)cc4)c4cc(S(=O)(=O)O)ccc34)c(O)c2c1 [Compound 4]	8.9	14.4	-7.5
O=C(O)c1cc(N=Nc2ccc(N=Nc3c(S(=O)(=O)O)cc4ccc(NCCS(=O)(=O)O)cc4c3O)c3ccc(S(=O)(=O)O)cc23)cc(C(=O)O)c1 [Compound 17]	5.7	2.6	2.3
O=S(=O)(O)CCNc1ccc2cc(S(=O)(=O)O)c(N=Nc3ccc(N=Nc4cccc(S(=O)(=O)O)c4)c4cc(S(=O)(=O)O)ccc34)c(O)c2c1 [Compound 6]	7.5	14.6	-6.4
O=C(O)c1ccc(N=Nc2ccc(N=Nc3c(S(=O)(=O)O)cc4ccc(NCCS(=O)(=O)O)cc4c3O)c3cc(S(=O)(=O)O)ccc23)cc1Cl [Compound 15]	4.7	4.5	-1.7
O=C(O)Cc1ccc(N=Nc2ccc(N=Nc3c(S(=O)(=O)O)cc4ccc(NCCS(=O)(=O)O)cc4c3O)c3cc(S(=O)(=O)O)ccc23)cc1 [Compound 7]	15.5	5.2	-5.9

Same assay, conditions: in words

SMILES	neutral black (color co-ordinates)
O=C(O)c1ccc(N=Nc2ccc(N=Nc3c(S(=O)(=O)O)cc4ccc(NCCS(=O)(=O)O)cc4c3O)c3cc(S(=O)(=O)O)ccc23)cc1Cl [Compound 15]	neutral blacks
O=C(O)Cc1ccc(N=Nc2ccc(N=Nc3c(S(=O)(=O)O)cc4ccc(NCCS(=O)(=O)O)cc4c3O)c3cc(S(=O)(=O)O)ccc23)cc1 [Compound 7]	neutral blacks

Same assay, conditions: state of the art dyes, Table 7

SMILES	L*a*b*-value: L*	L*a*b*-value: a*	L*a*b*-value: b*
Nc1ccc2cc(S(=O)(=O)O)cc(O)c2c1N=Nc1ccc(N=Nc2ccc(O)c(C(=O)O)c2)c2ccc(S(=O)(=O)O)cc12 [Compound 28, reference compound]	18.8	18.1	-4.1
Nc1ccc2cc(S(=O)(=O)O)c(N=Nc3ccc(N=Nc4cc(C(=O)O)cc(C(=O)O)c4)c4cc(S(=O)(=O)O)ccc34)c(O)c2c1 [Compound 25, reference compound]	10.6	11.7	-0.6
O=C(O)CCNc1ccc2cc(S(=O)(=O)O)c(N=Nc3ccc(N=Nc4ccc(C(=O)O)cc4)c4ccc(S(=O)(=O)O)cc34)c(O)c2c1 [Compound 27, reference compound]	23.7	15.1	-16.6

Test: Light fastness of printed samples (density loss after xenon lamp irradiation)
Type: physicochemical
Settings: printed samples, in words
Experimental: as §1, §2, §3
The printed samples were irradiated in an Atlas Ci35A Weather-O-Meter® with a r 6500 W Xenon lamp until a total illumination of 20 kJoule/cm^2 was reached. The density loss was measured with an X-Rite® densitometer. It is expressed as % loss of initial density.

SMILES	light fastness
O=C(O)c1ccc(N=Nc2ccc(N=Nc3c(S(=O)(=O)O)cc4ccc(NCCS(=O)(=O)O)cc4c3O)c3cc(S(=O)(=O)O)ccc23)cc1Cl [Compound 15]	excellent light fastness
O=C(O)Cc1ccc(N=Nc2ccc(N=Nc3c(S(=O)(=O)O)cc4ccc(NCCS(=O)(=O)O)cc4c3O)c3cc(S(=O)(=O)O)ccc23)cc1 [Compound 7]	excellent light fastness

Same assay, conditions: xenon lamp, total illumination 20 kJoule/cm^2; Table 6

SMILES	Density loss in % [%]
O=S(=O)(O)CCNc1ccc2cc(S(=O)(=O)O)c(N=Nc3ccc(N=Nc4ccc(S(=O)(=O)O)cc4)c4cc(S(=O)(=O)O)ccc34)c(O)c2c1 [Compound 4]	7
O=C(O)c1cc(N=Nc2ccc(N=Nc3c(S(=O)(=O)O)cc4ccc(NCCS(=O)(=O)O)cc4c3O)c3ccc(S(=O)(=O)O)cc23)cc(C(=O)O)c1 [Compound 17]	2
O=C(O)CCc1cccc(N=Nc2ccc(N=Nc3c(S(=O)(=O)O)cc4ccc(NCCS(=O)(=O)O)cc4c3O)c3cc(S(=O)(=O)O)ccc23)c1 [Compound 13]	4
O=S(=O)(O)CCNc1ccc2cc(S(=O)(=O)O)c(N=Nc3ccc(N=Nc4cccc(S(=O)(=O)O)c4)c4cc(S(=O)(=O)O)ccc34)c(O)c2c1 [Compound 6]	8
O=C(O)c1ccc(N=Nc2ccc(N=Nc3c(S(=O)(=O)O)cc4ccc(NCCS(=O)(=O)O)cc4c3O)c3cc(S(=O)(=O)O)ccc23)cc1Cl [Compound 15]	8
O=C(O)Cc1ccc(N=Nc2ccc(N=Nc3c(S(=O)(=O)O)cc4ccc(NCCS(=O)(=O)O)cc4c3O)c3cc(S(=O)(=O)O)ccc23)cc1 [Compound 7]	1
O=S(=O)(O)CCNc1ccc2cc(S(=O)(=O)O)c(N=Nc3ccc(N=Nc4cc(S(=O)(=O)O)c5cccc(S(=O)(=O)O)c5c4)c4ccc(S(=O)(=O)O)cc34)c(O)c2c1 [Compound 19]	1

Same assay, conditions: xenon lamp, total illumination 20 kJoule/cm^2; state of the art dyes, Table 7

SMILES	Density loss in % [%]
Nc1ccc2cc(S(=O)(=O)O)c(N=Nc3ccc(N=Nc4cccc(C(=O)O)c4)c4ccc(S(=O)(=O)O)cc34)c(O)c2c1 [Compound 23, reference compound]	2
Nc1ccc2cc(S(=O)(=O)O)c(N=Nc3ccc(N=Nc4cc(C(=O)O)cc(C(=O)O)c4)c4cc(S(=O)(=O)O)ccc34)c(O)c2c1 [Compound 25, reference compound]	2
O=C(O)CCNc1ccc2cc(S(=O)(=O)O)c(N=Nc3ccc(N=Nc4ccc(C(=O)O)cc4)c4ccc(S(=O)(=O)O)cc34)c(O)c2c1 [Compound 27, reference compound]	12

Reference: patent US5969115A, “Bisazo dyes and their preparation and use” (Ilford Imaging Switzerland GMBH, priority 1997, dated 1999)
